Laboratory results as given in ChEMBL document CHEMBL4270493, “Recent updates on third generation EGFR inhibitors and emergence of fourth generation EGFR inhibitors to combat C797S resistance” (Eur J Med Chem, 2017).

Legend:
Homo sapiens [1] = organism: Homo sapiens; experiment: Antitumor activity in patient with EGFR T790M mutant NSCLC assessed as objective response rate at 500 mg BID during phase 1/2 study; assay type: functional
Homo sapiens [2] = organism: Homo sapiens; experiment: Toxicity in patient with EGFR T790M mutant NSCLC assessed as induction of grade 3 hyperglycemia at 500 mg BID during phase 1/2 study; assay type: organism-based; details: in vivo
Homo sapiens [3] = organism: Homo sapiens; experiment: Antitumor activity in patient with EGFR T790M mutant NSCLC assessed as disease control rate at 500 mg BID during phase 1/2 study; assay type: functional
Homo sapiens [4] = organism: Homo sapiens; experiment: Toxicity in patient with EGFR T790M mutant NSCLC assessed as drug discontinuation rate at 500 mg BID during phase 1/2 study; assay type: organism-based; details: in vivo
Homo sapiens [5] = organism: Homo sapiens; experiment: Toxicity in patient with EGFR T790M mutant NSCLC assessed as induction of grade 3 QTc prolongation at 500 mg BID during phase 1/2 study; assay type: organism-based; details: in vivo
Homo sapiens [6] = organism: Homo sapiens; experiment: Antitumor activity in patient with EGFR T790M mutant negative NSCLC assessed as overall response rate at 500 mg BID during phase 1/2 study; assay type: functional

C=CC(=O)Nc1cccc(Nc2nc(Nc3ccc(N4CCN(C(C)=O)CC4)cc3OC)ncc2C(F)(F)F)c1 [ROCILETINIB]
Activity (Homo sapiens [1]): 60% | Activity (Homo sapiens [2]): 17% | Activity (Homo sapiens [3]): 90% | Activity (Homo sapiens [4]): 2.5% | Activity (Homo sapiens [5]): 2.5% | Activity (Homo sapiens [6]): 37%
